The subject of test [1] is primary splenocytes. Format: cell-based, C57BL/6-Tg(HLA-A2.1)1Enge/J mice. Conditions: stimulation with P6 (data not shown).
Test [2] deals with Influenza A/PR/8/34. Format: in vivo, C57BL/6-Tg(HLA-A2.1)1Enge/J mice.

Take IIGILHLILWILDRLFFKCIYRLF [P6]: the IL-4 production result in test [1] is “failure of stimulation with P6 to induce any IL-4 production”.

For “NRP-v: Lysozyme (Sigma) denatured by boiling, used as the control non relevant preparation”, the “succumbed to infection (mortality)” value in test [2] (CD8 depletion (anti-CD8 sera days 19 and 22), […], FIG. 3A) was 100%. The same substance registered a mortality rate in test [2] (absence of CD8 depletion (irrelevant sera), FIG. 3B) of 100%.

The record behind these values is patent publication US9446116B2, “Peptide sequences and compositions” (priority 2006, dated 2016).
